Where a SMILES comes first, the peptide text is derived from it.
Assays:
[1] = test system: Growth Hormone secretion; assay: Growth Hormone secretion in female mice after subcutaneous GRF analog; format: in vivo; details: female CD-1 mice; 10 μg/mouse subcutaneous; plasma 10 minutes after injection
From the text: (§1) CD-1 mice (female, weighting from 20 to 25 g) were obtained from Charles River Inc. Animals were used according to a protocol of the Animal Care Committee along with the principles of the Guide for the Care and Use of Experimental Animals of the Canadian Council on Animal Care. The animals were maintained on standard laboratory chow under a 12:12 light:dark cycle. They were kept in groups of 4 mice per cage.
At the day of the experiment, mice received a subcutaneous injection of GRF analog (10 μg/mouse dissolved in 20 mM sodium acetate (AcONa)+5% mannitol at pH 5). 10 minutes after injection, the mice were anesthezied with isolufrane. Blood samples (500 μl) were obtained by intra-cardiac puncture. Blood was placed into microtainer pre-treated with K3EDTA and immediately centrifuged at 13,000 RPM in a desktop centrifuge for 2 minutes. The plasma was collected and placed into a screwcap Eppendorf™ tube and quick frozen in liquid nitrogen. The samples were then kept at −80° C. until assayed. Determination of GH levels was performed as described below.
(§2) Rat and mouse plasma samples were vortexed carefully and centrifuged at 9,000 RPM for 2 min at 4° C. The dosage of GH levels was performed using the Rat/Mouse Growth Hormone ELISA kit from Millipore (Cat. # EZRMGH-45K). Sample supernatants were first diluted 20-fold with the GH ELISA assay buffer, and 10 μl of this dilution was added to the ELISA plate with 90 μl of GH EIA assay buffer. The remaining of the procedure was performed according to the manufacturer's instructions, and the data obtained were analyzed using GraphPad Prism™ software.
(§3) The GRF analogs described herein were tested for their ability to induce GH release in female mice and rats. […] The data are presented in Tables III (mice) and IV-V (rats).

[2] = test system: Growth Hormone secretion; assay: Growth Hormone secretion in female rats after subcutaneous GRF analog; format: in vivo; details: female Sprague-Dawley rats; 10 μg/rat subcutaneous; plasma 0-60 minutes
From the text: as §1, with “Sprague-Dawley rats” for “CD-1 mice”, “250” for “20”, “300” for “25”, “rats” for “mice”
The animals were anesthetized with isoflurane 2.5%. A mid-section opening was made in the neck to expose the carotid artery. The carotid artery was canulated with polypropylene tubing (PE-50) to allow blood withdrawal. After surgical preparation, rats received a subcutaneous injection of GRF analog (10 μg/rat dissolved in 20 mM AcONa+5% mannitol at pH 5). For pharmacodynamics studies, blood samples (400 μL) were collected from 4 to 8 animals per group per time point. Blood samples (400 μl) were collected via the carotid catheter at 0, 10, 20, 30, 45 and 60 minutes after drug injection. Blood was placed into microtainer pre-treated with K3EDTA and immediately centrifuged at 13,000 RPM in a desktop centrifuge for 2 minutes. The plasma was collected and placed into a screw cap Eppendorf™ and quick frozen in liquid nitrogen. The samples were then kept at −80° C. until assayed. Determination of GH levels was performed as described below.
as §2, §3

CC[C@H](C)[C@H](NC(=O)[C@H](C)NC(=O)[C@H](CC(=O)O)NC(=O)[C@@H](C)NC(=O)[C@@H](N)Cc1ccc(O)cc1)C(=O)N[C@@H](Cc1ccccc1)C(=O)N[C@H](C(=O)N[C@@H](CC(=O)O)C(=O)N[C@@H](CO)C(=O)N[C@@H](Cc1ccc(O)cc1)C(=O)N[C@@H](CCCNC(=N)N)C(=O)N[C@@H](CCCCN)C(=O)N[C@H](C(=O)N[C@@H](CC(C)C)C(=O)N[C@@H](C)C(=O)N[C@@H](CCC(N)=O)C(=O)N[C@@H](CC(C)C)C(=O)N[C@@H](CCCCN)C(=O)N[C@@H](C)C(=O)N[C@@H](CCCNC(=N)N)C(=O)N[C@@H](CCC(N)=O)C(=O)N[C@@H](CC(=O)O)C(=O)N[C@H](C(=O)N[C@@H](CC(C)C)C(=O)NC(C)(C)C(=O)N[C@@H](CCCNC(=N)N)C(N)=O)[C@@H](C)CC)C(C)C)[C@@H](C)O [SEQ ID NO: 22, Y-a-DAIFTDSYRKVLAQLKARQDIL-aib-R-NH2] (HELM PEPTIDE1{Y.[dA].D.A.I.F.T.D.S.Y.R.K.V.L.A.Q.L.K.A.R.Q.D.I.L.[Aib].R.[am]}$$$$V2.0)
GH levels 10 min [1]: 249.1 ng/mL

CC[C@H](C)[C@H](NC(=O)[C@H](C)NC(=O)[C@H](CC(=O)O)NC(=O)[C@@H](C)NC(=O)[C@@H](N)Cc1ccc(O)cc1)C(=O)N[C@@H](Cc1ccccc1)C(=O)N[C@H](C(=O)N[C@@H](CC(=O)O)C(=O)N[C@@H](CO)C(=O)N[C@@H](Cc1ccc(O)cc1)C(=O)N[C@@H](CCCNC(=N)N)C(=O)N[C@@H](CCCCN)C(=O)N[C@H](C(=O)N[C@@H](CC(C)C)C(=O)N[C@@H](C)C(=O)N[C@@H](CCC(N)=O)C(=O)N[C@@H](CC(C)C)C(=O)N[C@@H](CCCN)C(=O)N[C@@H](C)C(=O)N[C@@H](CCCNC(=N)N)C(=O)N[C@@H](CCC(N)=O)C(=O)N[C@@H](CC(=O)O)C(=O)N[C@H](C(=O)N[C@@H](CC(C)C)C(=O)N[C@@H](CO)C(=O)N[C@H](CCCNC(=N)N)C(N)=O)[C@@H](C)CC)C(C)C)[C@@H](C)O [SEQ ID NO: 23, Y-a-D-A-I-F-T-D-S-Y-R-K-V-L-A-Q-L-O-A-R-Q-D-I-L-S-r-NH2] (HELM PEPTIDE1{Y.[dA].D.A.I.F.T.D.S.Y.R.K.V.L.A.Q.L.[Orn].A.R.Q.D.I.L.S.[dR].[am]}$$$$V2.0)
GH levels 10 min [1]: 269.9 ng/mL

CC/C=C/CC(=O)N[C@@H](Cc1ccc(O)cc1)C(=O)N[C@@H](C)C(=O)N[C@@H](CC(=O)O)C(=O)N[C@@H](C)C(=O)N[C@H](C(=O)N[C@@H](Cc1ccccc1)C(=O)N[C@H](C(=O)N[C@@H](CC(=O)O)C(=O)N[C@@H](CO)C(=O)N[C@@H](Cc1ccc(O)cc1)C(=O)N[C@@H](CCCNC(=N)N)C(=O)N[C@@H](CCCCN)C(=O)N[C@H](C(=O)N[C@@H](CC(C)C)C(=O)N[C@@H](C)C(=O)N[C@@H](CCC(N)=O)C(=O)N[C@@H](CC(C)C)C(=O)N[C@@H](CCCN)C(=O)N[C@@H](C)C(=O)N[C@@H](CCCNC(=N)N)C(=O)N[C@@H](CCC(N)=O)C(=O)N[C@@H](CC(=O)O)C(=O)N[C@H](C(=O)N[C@@H](CC(C)C)C(=O)N[C@@H](CO)C(=O)N[C@H](CCCNC(=N)N)C(N)=O)[C@@H](C)CC)C(C)C)[C@@H](C)O)[C@@H](C)CC [SEQ ID NO: 24, Trans-3-hexenoyl-Y-A-D-A-I-F-T-D-S-Y-R-K-V-L-A-Q-L-O-A-R-Q-D-I-L-S-r-NH2] (HELM PEPTIDE1{[CC/C=C/CC(=O)[*:2]].Y.A.D.A.I.F.T.D.S.Y.R.K.V.L.A.Q.L.[Orn].A.R.Q.D.I.L.S.[dR].[am]}$$$$V2.0)
GH levels 10 min [1]: 332.6 ng/mL

H-YLDAIFTDSYRKVLAQLKARQDILARAARAAR-NH2 [SEQ ID NO: 35, YLDAIFTDSYRKVLAQLKARQDILARAARAAR-NH2]
Mean AUC (GH Area Under the curve, GH concentration over time) [2]: 9144
Mean Cmax (ng/ml) of Growth Hormone secretion [2]: 376.9 ng/mL

Source: patent US8361964B2, “Growth hormone releasing factor (GRF) analogs and uses thereof” (Theratechnologies Inc., priority 2011, dated 2013)
